“And” between values parts separate entries of the source, which are not always exact repeats. Equal entries are not always repeated.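 Briefly, cells in 96-well plates were exposed to five compound concentrations for 48 h, and endpoints were estimated by linear interpolation. GI50: concentration for 50% inhibition of growth.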 The source made the active and inactive calls. Rule as the data show it: active = GI50 up to about 1.1 µM and inactive = higher.

Some test systems named below: IGROV-1; HOP-92; HL-60; SF-539; Malme-3M; A498; UO-31; SF-295; 786-0; LOX IMVI; NCI-H460; SR; OVCAR-4; HCT-116; M14; HCC 2998; HCT-15; NCI-H23.
Common to all, as to assay: inhibition of tumour cell growth, NCI panel, 48 h

Regarding `CCN(CC)c1c(C(=O)/C=C/c2ccccc2)c(-c2ccccc2)nn(C)c1=O`, the GI50 in the assay on IGROV-1 is 9.79 µM (inactive); with HOP-92, 45.1 µM (inactive); in the assay with HL-60, 4.22 µM (inactive); in the assay on SF-539 it was 21.3 µM (inactive); with Malme-3M, 2.8 µM (inactive); with A498 it was 5.43 µM (inactive). In addition, the GI50 in the assay on UO-31 was > 100 µM (inactive); in the assay on SF-295 it was 6.01 µM (inactive); in the assay with 786-0, 7.31 µM (inactive); in the assay with LOX IMVI, 3.55 µM (inactive); in the assay with NCI-H460 it was 3.83 µM (inactive); in the assay on SR, 3.21 µM (inactive). Also, the GI50 in the assay on OVCAR-4 is 4.78 µM (inactive).
On to `Cc1cc2c(=O)cc(-c3ccc(C(=O)O)cc3)oc2c(C(=O)O)c1C`, for which the GI50 in the assay with HCT-116, in the assay on IGROV-1, with HOP-92, with HL-60, in the assay on M14 and with SF-539 was > 100 µM (inactive) throughout. Besides, the GI50 in the assay with Malme-3M is > 100 µM (inactive); in the assay on HCC 2998 it was > 100 µM (inactive); in the assay on HCT-15, above 100 µM; in the assay with UO-31, > 100 µM (inactive); in the assay with SF-295 it was > 100 µM (inactive); with 786-0, > 100 µM (inactive). The GI50 in the assay on NCI-H23, with LOX IMVI, in the assay with NCI-H460, with SR and in the assay on OVCAR-4 was > 100 µM (inactive) in each case.
Take `CCC1OCCN1C(C)C` (stereo not given): the GI50 was 89.9 µM (inactive) in the assay on HCT-116; > 100 µM (inactive) in the assay with IGROV-1; > 100 µM (inactive) in the assay with HL-60; > 100 µM (inactive) with SF-539; 65.2 µM (inactive) in the assay on Malme-3M; > 100 µM (inactive) with HCC 2998. In addition, the GI50 was 81.1 µM with HCT-15; > 100 µM (inactive) in the assay with A498; 96.6 µM (inactive) with UO-31; > 100 µM (inactive) in the assay on SF-295; > 100 µM (inactive) in the assay with 786-0; 32.9 µM (inactive) with NCI-H23. Moreover, the GI50 with LOX IMVI is > 100 µM (inactive); with NCI-H460 it was 63.1 µM (inactive); with SR, > 100 µM (inactive).
Take `COc1ccc(Br)c(N/N=C2\CCCNC2=O)c1`: the GI50 with HCT-116 was > 100 µM (inactive); with IGROV-1 it was 96.4 µM (inactive); in the assay with HOP-92 it was 48.9 µM (inactive); in the assay on HL-60, 68.5 µM (inactive); in the assay on M14 it was > 100 µM (inactive); in the assay with SF-539 it was 95.5 µM (inactive). The GI50 in the assay with Malme-3M is > 100 µM (inactive); with HCC 2998, > 100 µM (inactive); in the assay on HCT-15 it was above 100 µM; in the assay with UO-31 it was 32.1 µM (inactive); in the assay on SF-295 it was > 100 µM (inactive); with 786-0, > 100 µM (inactive). Further, the GI50 in the assay on NCI-H23 is > 100 µM (inactive); in the assay on LOX IMVI it was > 100 µM (inactive); in the assay with NCI-H460, > 100 µM (inactive); with SR it was 4.71 µM (inactive); with OVCAR-4, > 100 µM (inactive).
For `CCOC(=O)C1=C(NC(C)(C)C)OCC1=O`, the GI50 in the assay on HCT-116, in the assay on IGROV-1, with HOP-92, with HL-60, in the assay on M14 and with SF-539 was > 100 µM (inactive) throughout. Moreover, the GI50 was > 100 µM (inactive) in the assay with Malme-3M; > 100 µM (inactive) in the assay with HCC 2998; above 100 µM in the assay on HCT-15; > 100 µM (inactive) with UO-31; > 100 µM (inactive) in the assay with SF-295; > 100 µM (inactive) with 786-0. The GI50 in the assay on NCI-H23 was 92.7 µM (inactive); in the assay with LOX IMVI it was > 100 µM (inactive); in the assay with NCI-H460, > 100 µM (inactive); in the assay on SR, > 100 µM (inactive); in the assay with OVCAR-4, > 100 µM (inactive).
For `N#Cc1ccccc1Nc1ccccc1S`, the GI50 with IGROV-1 was 26.9 µM (inactive); in the assay on HOP-92, 35.1 µM (inactive); with HL-60, 25.3 µM (inactive); in the assay with SF-539, 17.7 µM (inactive); in the assay with Malme-3M it was 20.5 µM (inactive); in the assay with A498 it was 53.7 µM (inactive). Further, the GI50 is 28.2 µM (inactive) with UO-31; 23.9 µM (inactive) in the assay with SF-295; 20.9 µM (inactive) in the assay on 786-0; 37.8 µM (inactive) with NCI-H23; 17.5 µM (inactive) in the assay with LOX IMVI; 35.2 µM (inactive) in the assay with NCI-H460. Further, the figures for the GI50 in the assay with SR and with OVCAR-4 were 19.3 µM (inactive) and 37.9 µM (inactive), respectively.
For `COc1ccc(OC)c2c(C(=O)O)c(C(C)c3ccccc3)ccc12` (stereo not given), the GI50 with HCT-116, in the assay with IGROV-1, in the assay on HL-60, in the assay with M14, in the assay with Malme-3M and with HCC 2998 was > 100 µM (inactive) each time. Besides, the GI50 with HCT-15 was above 100 µM; in the assay on A498, > 100 µM (inactive); in the assay with UO-31, > 100 µM (inactive); in the assay with SF-295, > 100 µM (inactive); with 786-0, > 100 µM (inactive); with NCI-H23, > 100 µM (inactive). Moreover, the GI50 with LOX IMVI, in the assay on NCI-H460, in the assay on SR and in the assay with OVCAR-4 was > 100 µM (inactive) throughout.
With `CCN(CC)CCNc1ccc2nc(C)n3c4ccc(O)cc4c(=O)c1c23`, the GI50 is 0.357 µM (active) in the assay on HCT-116; 1.38 µM (inactive) with IGROV-1; 0.286 µM (active) with HL-60; 2.99 µM (inactive) in the assay on M14; 1.79 µM (inactive) with SF-539; 3.56 µM (inactive) in the assay on Malme-3M. For the same compound, the GI50 in the assay with HCC 2998 is 0.552 µM (active); in the assay with HCT-15 it was 0.64 µM; in the assay on A498, 2.69 µM (inactive); in the assay with UO-31, 1.94 µM (inactive); with SF-295, 0.462 µM (active); in the assay with 786-0, 0.381 µM (active). Besides, the GI50 is 0.71 µM (active) in the assay on LOX IMVI, 0.215 µM (active) in the assay on NCI-H460, 0.049 µM (active) in the assay with SR and 0.525 µM (active) in the assay on OVCAR-4.
For the compound `CC(C)(Oc1ccc(C(=O)c2ccc(Cl)cc2)cc1Cl)C(=O)N1CCN(c2ccccc2)CC1`, the GI50 in the assay with HCT-116 is 82.2 µM (inactive); in the assay on IGROV-1, > 100 µM (inactive); in the assay with HOP-92, > 100 µM (inactive); with HL-60, 60.8 µM (inactive); with M14, > 100 µM (inactive); in the assay with SF-539, > 100 µM (inactive). The GI50 in the assay on Malme-3M was > 100 µM (inactive); in the assay with HCT-15 it was above 100 µM; in the assay on A498 it was > 100 µM (inactive); with UO-31, 46.9 µM (inactive); with SF-295, > 100 µM (inactive); in the assay with 786-0, > 100 µM (inactive). The GI50 in the assay on NCI-H23 is 37.2 µM (inactive); in the assay on LOX IMVI it was > 100 µM (inactive); with NCI-H460, > 100 µM (inactive); with SR, 66.1 µM (inactive).
In the case of `CC(C)(C)C1=CC(=NNC(=S)NCc2ccccc2)C=C(C(C)(C)C)C1=O`, the GI50 in the assay with HCT-116 was 60.5 µM (inactive); with IGROV-1 it was > 100 µM (inactive); with HL-60, > 100 µM (inactive); with M14, > 100 µM (inactive); in the assay with SF-539 it was > 100 µM (inactive); in the assay with Malme-3M it was > 100 µM (inactive). Moreover, the GI50 was 53.7 µM (inactive) in the assay with HCC 2998; above 100 µM in the assay on HCT-15; 77.4 µM (inactive) with A498; 52 µM (inactive) in the assay with UO-31; 86.3 µM (inactive) in the assay on SF-295; 55.6 µM (inactive) in the assay on 786-0. Moreover, the GI50 is 64 µM (inactive) in the assay with NCI-H23; 73.8 µM (inactive) in the assay on LOX IMVI; 47.6 µM (inactive) in the assay on NCI-H460; > 100 µM (inactive) with SR; 90.2 µM (inactive) in the assay on OVCAR-4.
For `COc1cc2c(c(OC)c1OC)-c1ccc(SC)c(=O)cc1[C@@H](NC(=O)c1ccc(Cl)cc1)CC2`, the GI50 in the assay with HCT-116, with IGROV-1, in the assay on HL-60, in the assay with M14, in the assay on SF-539 and with Malme-3M was < 0.01 µM (active) each time. For the same compound, the GI50 with HCC 2998 was < 0.01 µM (active); in the assay with HCT-15, below 0.01 µM; with A498, < 0.01 µM (active); in the assay on UO-31, 0.0196 µM (active); in the assay with SF-295 it was < 0.01 µM (active); in the assay with 786-0, < 0.01 µM (active). Moreover, the GI50 with NCI-H23, in the assay with LOX IMVI, with NCI-H460, in the assay on SR and with OVCAR-4 was < 0.01 µM (active) throughout.
Regarding `COc1ccc2cc1Oc1ccc(cc1)C[C@H]1c3cc(c(OC)cc3CCN1C)Oc1c(OC)c(OC)cc3c1[C@H](C2)N(C)CC3` [FANCHININ], the GI50 was 4.5 µM (inactive) and 50.5 µM (inactive) in the assay with HCT-116; 9.2 µM (inactive) and 49.2 µM (inactive) with IGROV-1; 1.79 µM (inactive) and 57.1 µM (inactive) in the assay on HOP-92; 7.8 µM (inactive) and 99.5 µM (inactive) in the assay on HL-60; 26.2 µM (inactive) and 260 nM (active) in the assay on M14; 20.1 µM (inactive) and 4.78 µM (inactive) in the assay on SF-539. Further, the GI50 in the assay on HCC 2998 was 1.71 µM (inactive); with HCT-15, 7.78 µM; with A498, 7.33 µM (inactive) and 60.5 µM (inactive); with SF-295 it was 8.93 µM (inactive) and 36.2 µM (inactive); with 786-0 it was 3.05 µM (inactive) and 43.5 µM (inactive); in the assay on NCI-H23, 77.4 µM (inactive) and 8.43 µM (inactive). The GI50 in the assay with NCI-H460 is 6.71 µM (inactive); in the assay on SR, 2.47 µM (inactive) and 12.1 µM (inactive); with OVCAR-4, 2.42 µM (inactive).
